Assay results published in patent US10324096B2, “Method of diagnosis, prognostic or treatment of neurodegenerative disease” (CENTRE NATIONAL DE LA RECHERCHE SCIENTIFIQUE, priority 2011, dated 2019).

Experiments:
[1] = system: zebrafish 3-OST-2 gene / abnormally phosphorylated Tau protein; test: Morpholino knock-down of 3-OST-2 in hTAU-P301L zebrafish: hyperphosphorylated Tau; format: in vivo
Experimental: (§1) Morpholino oligonucleotides (MO) were designed to target the flanking region in the zebrafish 3-OST-2 gene in order to block the translation of the HS3ST2 mRNA: 5′-ATGGCATATAGGT TCCTGTCAAGCC . . . -3′. The morpholino antisense oligonucleotides were designed by Gene Tools (LLC One Summerton Way, Philomath, Oreg., USA). MO HS3ST2-ATG: 5′-[…]-3′.
The morpholinos were diluted to three different concentrations in Danieau buffer (58 mM NaCl, 0.7 mM KCl, 0.4 mM MgSO4, 0.6 mM Ca(NO3), 5 mM HEPES pH 7.6) and co-injected with 0.3 mg/mL dextran rhodamine (Molecular Probes, Eugene, Oreg., USA). Transgenic zebrafish embryos at one-cell or two-cell stage were microinjected with approximately 2 nL of 0.5 mM, or 1 mM morpholino solution using a pressure microinjector and a Zeiss stereomicroscope (Zeiss). […]
The embryos resulting from crossing between AB line and transgenic zebrafish carrying the P301L mutated Tau gene were screened for the DsRed fluorescent protein at 24 hpf and at 48 hpf the vitellus was removed. […] Protein concentration was measured according to the Bradford method.
Levels of P-Tau181, characteristic of taupathy associated pathologies, were measured using a combination of monoclonal antibody HT7 (which recognizes amino acids 159-163 in normal Tau and P-Tau) and biotinylated monoclonal antibody AT270 (which recognizes P-Tau containing the phosphorylated threonine 181 residue). […]

[2] = system: transgenic hTAU-P301L zebrafish embryos; test: Morpholino injection in transgenic hTAU-P301L zebrafish embryos: survival, anomalies; format: in vivo; details: morpholino 0.5 mM
Text: Transgenic hTAU-P301L embryos with morpholino-mediated knock-down of the 3-OST-2 coding gene with SEQ ID NO: 5 and the non-injected embryos were screened on the intensity of DsRed fluorescent protein at 24 hpf. With morpholino-mediated knock-down of the 3-OST-2 coding gene in the transgenic hTAU-P301L zebrafish model the level of hyperphosphorylation in Tau protein was investigated. First of all, the obtained zebrafish embryos from the crossing between WT line and transgenic zebrafish carrying the P301L mutation in Tau protein were injected with different morpholino concentrations, respectively 0.3 mM, 0.5 mM and 1 mM. The numbers of living embryos were assessed at 24 hours after injection and survival rates were determined. […] Thus, this concentration was chosen for further analyses (FIG. 12).
as §1
The morpholinos were diluted to three different concentrations in Danieau buffer (58 mM NaCl, 0.7 mM KCl, 0.4 mM MgSO4, 0.6 mM Ca(NO3), 5 mM HEPES pH 7.6) and co-injected with 0.3 mg/mL dextran rhodamine (Molecular Probes, Eugene, Oreg., USA). […]

[3] = system: abnormally phosphorylated Tau in wild type differentiated SH-SY5Y cells; test: Suppression of GAG sulfation by chlorate in differentiated SH-SY5Y cells, pTau western blot; format: cell-based, human; details: FIG. 8A, chlorate 50 mM
Experimental: Two cell types were used, (i) a wild type SH-SY5Y cells (mutation-independent model) in where abnormal phosphorylation is induced by oxidative stress and (ii) cells stably transfected with complete human tau protein having the mutation hTAU-P301L (mutation dependent model), characteristic of FTDP-17. As a consequence of the Tau mutation cells present high levels of abnormal phosphorylated Tau.
For the mutation dependent model cells were cultured as previously described (Schaeffer V et al., J Neurobiol 2006, July; 66(8):868-881). For the mutation independent model, human SH-SY5Y neuroblastoma cells were propagated in Dulbeco's modiced Eagle's medium (Gibco) with 5% fetal bovine serum and penicillin/streptomycin (5% CO2 and 95% air). For both models cells were plated at a density of 10^6 cells/cm^2 on 25 cm^2 dish and incubated under standard conditions for 24 h. […]
After harvesting, cells were and incubated in an ice bath for 5 min in a lysis buffer (50 mM Trus-HCl, 150 mM NaCl, 1% Triton X-100, 1 mM EDTA, 10 mM NaF, pH 8.0) containing 1 mM Na3VO4, and 0.1% protease inhibitor cocktail (Sigam). Lysates were centrifuged and proteins in the supernatants were quantified using the BCA protein assay kit (Pierce). […] Abnormally phosphorylated tau was detected by using anti-tau-pSer199 and anti-tau-pSer396 (Millipore) as described above. […] Results were expressed as a ratio of target protein to actine. […]

human Tau protein = target: T1, human Tau protein (Homo sapiens, UniProt P10636); test: Heparin/glycosaminoglycans ELISA competition assay towards human Tau protein (immobilized heparin); format: binding; details: FIG. 20
T1 construct: purchased R&D systems
Experimental: FIGS. 6A and 6B presents the higher capacity of GAGs extracted from hippocampus of AD to bind to human tau protein compared to GAGs from age-matched normal control brains. An ELISA test was used to compare the capacity of the different GAGs to bind to tau protein. The ELISA competing assay used immobilized heparin to bind au in the absence of competing GAGs. For the assay, GAGs (used from 0.1 to 1000 ng/mL) were added to the ELISA together with the tau protein (used at 100 ng/mL). After 1 h incubation at 4° C. plates were washed and remaining tau signal was recorded in the plate. X-axis: % Tau protein binding to total sulfated GAGs. EC50 stands for the GAG concentration necessary to inhibit 50% of the tau protein binding to immobilized heparin. Y-axis: Control (white histogram), AD (black histogram).
AD and control hippocampus extracted GAGs binding to human Tau protein (R&D systems) was evaluated by an ELISA based competition binding essay (Najjam et al., 1997). ELISA type 96 wells plates were coated with a 2 μg/mL BSA-heparin conjugate solution prepared as previously described (Najjam et al., 1997). After washing with PBS/0.05% Tween-20 (washing solution), wells were saturated with 3% BSA in PBS. […] Peroxidase activity was measured by the tetramethylbenzidine (TMB) detection kit (Pierce). […]

[4] = target: T2, recombinant human tau protein (441-amino acid isoform), GSK-3 (Homo sapiens, UniProt P10636); test: Phosphorylation of recombinant human Tau by GSK-3 in the presence of GAGs, heparin or oligosaccharides; format: biochemical; details: 3-O-sulfated groups in heparin
T2 construct: purchased Millipore
Experimental: Phosphorylation by glycogen synthase kinase 3 (GSK-3). Recombinant hTau41 (Millipore) was incubated for 0 to 24 h with […] of recombinant GSK3 (Millipore) in the presence or absence of 50 mg/ml of heparin, Arixtra®, or the heparin hexasaccharide non 3-O-sulfated. Phosphorylation assays (0.050 ml) were carried out at 30° C. and comprised 25 mM Tris-HCl, pH 7.4, 0.1 mM EGTA, 0.1 mM sodium orthovanadate, 2.5 mM PKI (a specific inhibitor of cyclic AMP-dependent protein kinase), protease inhibitors (0.5 mM phenylmethylsulfonyl fluoride, 5 mg/ml aprotinin, 5 mg/ml leupeptin,
and 0.5 mg/ml pepstatin), tau protein ([…]), 10 mM magnesium acetate, 2 mM [g-^32P]ATP (approximately 100 cpm/nmol) 5 units/ml recombinant reconstituted GSK3. Reactions were initiated with ATP and aliquots were removed at various times ranging from 10 min to 24 h and used for SDS-polyacrylamide gel electrophoresis and immunoblotting. Immunoblots were performed as described (Masato Hasegawa et al., J Bio Chem. (1997) 272 (52), pp. 33118-33124). Alternatively, incorporation of ^32P radioactivity was measured after adsorption to Whatman P-81 paper, as described. Heparin and extracted GAGs were included in the assays at 50 mg/ml.

T2 sequence (P10636 1-441 isoform P10636-8): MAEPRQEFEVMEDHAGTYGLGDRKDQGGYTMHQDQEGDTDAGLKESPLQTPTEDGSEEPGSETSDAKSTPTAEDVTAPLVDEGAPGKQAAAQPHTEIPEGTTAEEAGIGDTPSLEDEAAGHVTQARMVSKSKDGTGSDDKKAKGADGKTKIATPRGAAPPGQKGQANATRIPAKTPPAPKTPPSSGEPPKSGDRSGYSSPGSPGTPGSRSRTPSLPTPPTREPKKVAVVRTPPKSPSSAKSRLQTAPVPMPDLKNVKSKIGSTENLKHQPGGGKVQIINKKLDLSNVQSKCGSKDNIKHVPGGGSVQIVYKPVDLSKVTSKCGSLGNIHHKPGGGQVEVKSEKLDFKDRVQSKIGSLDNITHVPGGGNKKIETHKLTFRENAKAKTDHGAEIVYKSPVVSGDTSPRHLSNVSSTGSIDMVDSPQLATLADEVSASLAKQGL
T1 sequence (P10636 1-441 isoform P10636-8): as above

Molecule: 5′-GGCTTGACAGGAACCTATATGCCAT-3′ (all phosphorodiamidate morpholino (PMO)) [MO HS3ST2-ATG]
- accumulation of abnormally phosphorylated Tau protein in spinal cord ([1]; FIG. 13, anti-PHF-tau antibody clone AT8): diminishes the accumulation of abnormally phosphorylated Tau protein in spinal cord
- accumulation of abnormal Tau hyperphosphorylation in vivo ([1]; decreasing expression of 3-OST-2 by morpholino): accumulation of abnormal Tau hyperphosphorylation was markedly decreased
- major anomalies or deformities [2]: did not give major anomalies or deformities
- survival rate ([2]; 24 hours post-injection): 67%

Molecule: [O-][Cl+2]([O-])O [chlorate, sodium chlorate]
- levels of abnormally phosphorylated Tau epitopes S199, T231, S262, S396 (pTau/β actine) [3]: Decreased levels of the abnormally phosphorylated Tau epitopes

Molecule: fucoidan
- competition with heparin for binding to human Tau protein (percentage of binding of test compound to hTau) (human Tau protein): able to compete with heparin for the binding to human Tau protein

Molecule: heparin
- induction of abnormal Tau phosphorylation in vitro [4]: able to induce abnormal Tau phosphorylation in vitro
